Laboratory results reported in patent publication US4885299A, “2-(2,3-dihydro-2-oxo-3-benzofuranyl)acetic acids antihypoxic and nootropic effects having” (ADIR Et Cie, priority 1987, dated 1989).

Experiments:
[1] = test system: Acute hypoxia in mice; survival of the brain; test: Acute hypoxia in mice (hypobaric); brain survival time to final respiratory gasp; format: in vivo, Male CD1 mice (Charles River); settings: mice
Protocol: (§1) The compounds of the present invention were tested in respect of their capacity to prolong the survival of cerebral tissue during acute hypoxia in mice, or to maintain the level of tissue energy-rich compounds in rats subjected to a fall in the oxygen supply [Pharmacology of Cerebral Ischemia, p. 334-339 (1968) Elsevier Science Publishers B.V., J. Krieglstein ed.]. […] Forsch. Drug. Res. (1986), 36 II No. 9, p. 1314-1320].
The survival of the brain is assessed by measuring the time at which the final respiratory gasp is observed.
The survival time of a treated batch is compared with that of a control batch receiving only the solvent.
The percentage increase in the survival time after the animals are treated with the compounds of the invention is shown in Table II.

[2] = test system: brain energy-rich compounds (ATP, ADP, AMP); test: Acute hypoxia in rats; protection of tissue energy-rich compounds in brain (ATP, energy content); format: in vivo, Male Fischer 344 rats (Charles River); settings: for % inhibition of the effects of hypoxia, ATP / % inhibition of the effects of hypoxia, EC (tissue energy content): 3% oxygen for 2 minutes
Protocol: as §1
Whereas the control rats breath a gaseous mixture containing 21% of oxygen and 79% of nitrogen, the rats subjected to hypoxia breath a mixture of 3% oxygen and 97% nitrogen for 2 minutes.
At the end of the hypoxic period, the animals are rapidly sacrificed by total immersion in liquid nitrogen. The frozen brain is removed and the energy-rich compounds (ATP, ADP, AMP) are extracted and assayed by the luciferin luminescence method.
The tissue energy content (EC) is calculated according to ATKINSON's formula: [formula]

[3] = 100 mg/kg I.P., listed as pyritinol

Cc1ncc(CSSCc2cnc(C)c(O)c2CO)c(CO)c1O [Pyritinol, pyritinol]
Percentage increase in the survival time ([1]; 100 mg/kg I.P., 30 minutes before hypoxia): +27%
significance of the protection (brain survival time) ([1]; 100 mg/kg): significant
change in vivo at 30 mg/kg ([1]; Mus musculus, ip, 30 mg/kg I.P., 30 minutes before hypoxia, read-out: Percentage increase in the survival time): 13%
change in vivo at 100 mg/kg ([1]; Mus musculus, ip, 100 mg/kg I.P., 30 minutes before hypoxia, read-out: Percentage increase in the survival time): 27%
change in vivo at 200 mg/kg ([1]; Mus musculus, ip, 200 mg/kg I.P., 30 minutes before hypoxia, read-out: Percentage increase in the survival time): 77%
% inhibition of the effects of hypoxia, ATP ([2]; 30 mg/kg I.P.): 11.1%
% inhibition of the effects of hypoxia, EC (tissue energy content) ([2]; 30 mg/kg I.P.): 16.6%
antihypoxic effect in words ([2]; 100 mg/kg): only a more modest effect
% inhibition of the effects of hypoxia, ATP ([2]; 100 mg/kg I.P.): 23.3%
% inhibition of the effects of hypoxia, EC (tissue energy content) ([2]; 100 mg/kg I.P.): 35.2%
% inhibition of the effects of hypoxia, ATP [2, 3]: 23%
% inhibition of the effects of hypoxia, EC (tissue energy content) [2, 3]: 35%
antihypoxic effect / protection in words ([2]; 300 mg/kg): distinct antihypoxic effect
% inhibition of the effects of hypoxia, ATP ([2]; 300 mg/kg I.P.): 90.4%
% inhibition of the effects of hypoxia, EC (tissue energy content) ([2]; 300 mg/kg I.P.): 85.4%
